Measurements taken from patent US9927437B2, “Treating neurodegenerative disease” (THE BRIGHAM AND WOMEN'S HOSPITAL, INC., priority 2013, dated 2018).
“Also recorded” adds a separate entry of the source.

Key:
Assay type in all cases: cell-based, mouse
[1] = system: NF-κB (P65); test: NF-κB translocation to the nucleus in astrocytes (western blot); conditions: LPS/IFNγ; for translocation of NF-κB to the nucleus: cultured astrocytes
Method: FIGS. 14a-g. B4GALT6 directly controls astrocyte activation. (a) Cultured astrocytes were pre-treated for 1 h with PDMP (25 μM), LacCer (10 μM), both (LacCer+PDMP), or vehicle control (vehicle), followed by activation with LPS/IFNγ for 6 h, or left un-treated (control, Con). mRNA expression was analyzed 6 h following activation. qPCR analysis of the expression of cc/5, csf2, nos2, il6, H2-Aa, and tlr2 presented relative to gapdh. Statistical analysis by one-way ANOVA, followed by Tukey post-hoc analysis. (b, c) Cultured astrocytes were pre-treated for 1 h with LacCer (b) or PDMP (c), at indicated concentrations, followed by activation with LPS/IFNγ, or left un-treated (control, Con). Cell viability was determined 6 h after activation. […] Working concentrations (as in a) are marked in red. (d) The expression of B4galt6 (shB4galt6) or non-targeting shRNA (ShControl) in primary astrocytes was knocked-down using verified shRNA. Astrocytes were then pre-treated for 1 h with PDMP, or vehicle control (vehicle), followed by activation with LPS/IFNγ for 6 h, or left un-treated (control, Con). mRNA expression for H2-Aa, Ccl5 and Cxcl10 was determined; expression is presented as fold induction relative to housekeeping gene (Gapdh). Statistical analysis by one-way ANOVA, followed by Tukey post-hoc analysis (n≥3). […] (f) NF-κB (P65), GAPDH, and Lamin B expression, in cytoplasmic and nuclear fractions analyzed by western blot. The degree of NF-κB translocation to the nucleus was assessed by the ratio between the expression of P65 in nuclear and cytoplasmic fractions following densitometric quantification on four independent experiments (Right panel). […] (g) Expression of CCL-2 or iNOS in IRF-1^+ GFAP^+ astrocytes determined by IF during chronic EAE. […]
Astrocytes were treated as indicated, and total extracts (30 μg of protein), or the nuclear and cytoplasmic subcellular fractionations of cells, were separated by NuPAGE 10% Bis-Tris Gel (Invitrogen), and electroblotted onto supported nitrocellulose membrane. […] Data quantification was done using Image Studio software (Version 3.1.4) (LI-COR, Inc.)

[2] = system: Ly6C^high monocytes; test: Response of Ly6C^high monocytes to LPS/IFNγ (nCounter); conditions: LPS/IFNγ 6 h
[3] = system: Ly6C^high monocytes; test: Monocytes migration assay (transwell, CCL-2); conditions: 1 h pre-treatment, CCL-2 50 ng/ml, 3 h
Text: FIGS. 4a-m. B4GALT6 regulates ccl2 transcriptional activity in astrocytes. (a) Murine ccl2 promoter. (b) Luciferase activity in 293T cells transfected with the ccl2 luciferase reporter plus one of the following constructs encoding IRF-1, p65 or an empty control vector (Empty). Results are relative to secreted alkaline phosphatase activity, presented as fold induction from empty vector. Data from three independent experiments, statistical analysis by Student's t-test. (c) ChIP analysis of the interaction of NF-κB, and IRF-1 with the ccl2 promoter in primary cultured astrocytes, pre-treated with PDMP and LacCer and activated with LPS/IFNγ (as in FIG. 3), 2 hours following LPS/IFNγ induction. (d-h) Recruitment of inflammatory monocytes (defined either as of CD11b^+ Ly6C^high or CD11b^+CD45^high cells) to the CNS of EAE NOD mice treated with PDMP or vehicle, as in (FIG. 1k), analyzed by flow cytometry and presented as cell frequency (e, g) and total cell numbers (f, h). Representative data of three independent experiments. […] (i) The frequency and number of CD11b^+ Ly6C^high monocytes as determined in the CNS 10 days after the i.c.v. injection of astrocytes-specific shRNA lentivirus as in (FIG. 3j). […] (j) monocytes were pre-treated for 1 h with PDMP, LacCer, both (LacCer+PDMP), or vehicle, and monocytes chemotaxis was measured using a transwell chamber system. […]

Compound | translocation of NF-κB to the nucleus [1] | monocyte response to LPS/IFNγ stimulation [2] | monocyte migration in a CCL-2 gradient [3] | NF-κB translocation, LacCer added to PDMP ([1]; LacCer + PDMP)
CCCCCCCCCC(=O)N[C@H](CN1CCOCC1)[C@H](O)c1ccccc1 [PDMP, D-threo-1-phenyl-2-decanoylamino-3-morpholino-1-propanol] | decreased translocation of NF-κB to the nucleus | did not affect | did not affect; also recorded: no significance effect | –
lactosylceramide [LacCer] | triggered NF-M3 activation | did not affect | did not affect; also recorded: no significance effect | abrogated the inhibition induced by PDMP
